1 cell line from the supplement of paper PMC10307832 can be followed below.

What all share (experiment): relative viability (nuclei count vs DMSO), 5 days (fraction); higher = more cells survive
Compound in the assay “PAC-1 + OSI-027”: C=CCc1cccc(/C=N/NC(=O)CN2CCN(Cc3ccccc3)CC2)c1O [PAC-1] + COc1cccc2cc(-c3nc([C@H]4CC[C@H](C(=O)O)CC4)n4ncnc(N)c34)[nH]c12 [OSI-027] (partner 0.5 µM)
An outline of the steps:
(§1)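 Relative viability divides the nuclei count in treated wells by that in vehicle wells. Lung cancer cell lines were seeded in 1536-well plates, dosed by pin tool the next day, and fixed and stained after 5 days in one step with final 0.05% Triton X-100, 1% formaldehyde and 1 ug/ml Hoechst. Dosing was a single drug or a fixed anchor-drug dose plus five library-drug doses (not always all listed) in √10 steps, and values are medians of duplicate plates imaged at 4×.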

Compound in the assay “Ibrutinib + Dasatinib”: C=CC(=O)N1CCC[C@@H](n2nc(-c3ccc(Oc4ccccc4)cc3)c3c(N)ncnc32)C1 [Ibrutinib] + Cc1nc(Nc2ncc(C(=O)Nc3c(C)cccc3Cl)s2)cc(N2CCN(CCO)CC2)n1 [Dasatinib] (partner 0.075 µM)
Summed up:
as §1

Compound in the assay “BMX-IN-1 + Foretinib”: C=CC(=O)Nc1cc(-n2c(=O)ccc3cnc4ccc(-c5ccc(NS(C)(=O)=O)cc5)cc4c32)ccc1C [BMX-IN-1] + COc1cc2c(Oc3ccc(NC(=O)C4(C(=O)Nc5ccc(F)cc5)CC4)cc3F)ccnc2cc1OCCCN1CCOCC1 [Foretinib] (partner 0.25 µM)
Summed up: as §1

Compound in the assay “BMX-IN-1 + Tozasertib”: C=CC(=O)Nc1cc(-n2c(=O)ccc3cnc4ccc(-c5ccc(NS(C)(=O)=O)cc5)cc4c32)ccc1C [BMX-IN-1] + Cc1cc(Nc2cc(N3CCN(C)CC3)nc(Sc3ccc(NC(=O)C4CC4)cc3)n2)n[nH]1 [Tozasertib] (partner 0.1 µM)
An outline of the steps: as §1

As for SK-MES-1, the relative viability came out at 0.651 with PAC-1 + OSI-027 (first compound 0.02 µM); 0.636 with PAC-1 + OSI-027 (first compound 0.06325 µM); 0.533 with PAC-1 + OSI-027 (first compound 0.2 µM); 0.645 in the assay with PAC-1 + OSI-027 (first compound 2 µM); 0.281 in the assay with Ibrutinib + Dasatinib (first compound 0.005 µM); 0.211 with Ibrutinib + Dasatinib (first compound 0.01581 µM). Further, the relative viability with Ibrutinib + Dasatinib (first compound 0.05 µM) was determined as 0.194; with Ibrutinib + Dasatinib (first compound 0.1581 µM), 0.38; with Ibrutinib + Dasatinib (first compound 0.5 µM), 0.178; with BMX-IN-1 + Foretinib (first compound 0.02 µM), 0.877; with BMX-IN-1 + Foretinib (first compound 0.2 µM) it was 1.02; with BMX-IN-1 + Foretinib (first compound 0.6325 µM) it was 0.967. The relative viability turned out to be 0.728 in the assay with BMX-IN-1 + Foretinib (first compound 2 µM); 1.12 with BMX-IN-1 + Tozasertib (first compound 0.02 µM); 1.15 in the assay with BMX-IN-1 + Tozasertib (first compound 0.2 µM); 1.07 in the assay with BMX-IN-1 + Tozasertib (first compound 0.6325 µM); 0.884 with BMX-IN-1 + Tozasertib (first compound 2 µM).
